No end group written: not given here.
How the values were obtained:
Arthus reaction = assay: Type III allergic (Arthus) reaction-induced rat model, dye leakage; type: in vivo, Slc:Wistar rats; conditions: 50 mg/kg intraperitoneal; mean±SD
Method: Using forty-two 7-week-old male Slc:Wistar rats, examinations were made on test substance VII-2, with each of intraperitoneal administration and intravenous administration into tail vain. Acclimation was carried out by giving normal solid chow CRF-1 for a period of 6 days or longer. On the day prior to administration, the back of each animal was shaved. On the day of administration, a mixed solution of egg-white Ovalbumin (MP Biomedicals) (hereinafter referred to as “OVA”) and Evans blue dye was administered into the tail vein. […] The amount of dye leakage was quantified by measuring absorbance for the Evans blue dye with a spectrophotometer and using a calibration curve. […]
Several cuttings were made in the skin strips that had been punched out with a punch. […] The amount of dye leakage was calculated from a calibration curve of known amounts of the dye.
The mean value (mean)±standard deviation (SD) for each of the groups was calculated with respect to body-weight measurements and amounts of dye leakage. For amounts of dye leakage, the value for each of the animals was determined by subtracting the mean of the values obtained for the two sites of PBS administration from the mean of the values obtained for the two sites of administration of the anti-OVA solution. […]

[1] = system: adjuvant-induced arthritis; assay: Adjuvant arthritis rat model; type: in vivo, Lewis/CrlCrlj rats; design: key to Redness scores (left hind-limb) / Redness scores (right hind-limb): 0 = no redness, 4 = severe redness; key to Scores of swelling in the instep (left hind-limb) / Scores of swelling in the instep (right hind-limb): 0 = no swelling, 4 = severe swelling; key to Scores of swelling in knuckle joints (left hind-limb) / Scores of swelling in knuckle joints (right hind-limb): 0 = no swelling, 4 = swelling of all the digits; conditions: 10 mg/kg oral from day 10
Source text: Male Lewis/CrlCrlj (SPF) rats were used to investigate the arthritis suppressing effect of a peptide of the present invention on adjuvant-induced arthritis. Forty-five rats were purchased from Charles River Laboratories Japan, Inc., and fed normal chow and allowed to acclimate for 7 days before used (the range of body weights was from 193.3 to 218.3 g at the beginning of use).
In an agate motor, dead tubercle bacilli (Mycobacterium butyricum; Lot No. 0260570, Difco) were pulverized. Then, liquid paraffin was added in small amounts to spread the pulverized bacilli well, so as to allow them to be emulsified at 1.0 mg/mL. The resultant emulsion was used after verification to ensure that the pulverized bacilli had been allowed to be finely emulsified, using an NM MICRONIZER (Nippon Seiki Co., Ltd.).
A right hind-limb of the respective rats was exposed, and 100 μL of the emulsion was intradermally injected once into a footpad of the right hind-limb using a 25G-needle attached syringe, to cause arthritis (day 0).
Each of the groups was comprised of 5 animals.
Arthritis was evaluated only for the hind-limbs, based on the criteria described below:
Score 0: no swelling Score 1: swelling of not more than two digits Score 2: swelling of three digits Score 3: swelling of four digits Score 4: swelling of all the digits
Score 0: no swelling Score 1: mild swelling Score 2: modest swelling Score 3: rather severe swelling Score 4: severe swelling
Score 0: no redness Score 1: mild redness Score 2: modest redness Score 3: rather severe redness Score 4: severe redness (iii) Measurement of Foot Volumes of Left And Right Hind-Limbs
Measurement was performed using a plethysmometer (UNICOM TK105). The increasing rate foot volume (percentage of paw swelling, paw swelling %) was calculated by the following formula:
Percent paw swelling (%)=[(Vt−Vo)/Vo]×100
In addition, in these examinations, the percent change of edema relative to day 10 post-adjuvant was calculated, in order to assess the effect of treatment with the test substances.
Data are expressed by mean±standard error. Since the uniformity of variance was not verified in testing between the negative and the positive control groups, testing for significant difference was performed by Aspin-Welch t-test. Since the uniformity of variance was not verified in testing for significant differences of the respective test-substance administered groups relative to the positive control group, assessment was performed by Dunnett's multiple comparison test after Kruskal-Wallis testing, using non-parametric procedures. Differences were considered to be statistically significant at p values of less than 0.05.

IL-1β in plasma = IL-1β in plasma of adjuvant arthritis rats (ELISA); type: in vivo, rat; conditions: day 21 post-adjuvant; 10 mg/kg oral from day 10
Method: (§1) TNF-α and IL-1β in plasma were measured in a double-point method using the TNF-α ELISA kit (Lbis® TNF-α-rat) and the IL-1β ELISA kit (Quantikine® Rat IL-1β/IL-1F2).
(§2) On day 21 post-adjuvant, the animals were subjected to autopsy, and plasma was prepared to measure IL-1β and TIN-α concentrations in plasma. In all the groups for which measurements were made, the concentration of TNF-α was below the detection limit (8 pg/mL).

TNF-α in plasma = TNF-α in plasma of adjuvant arthritis rats (ELISA); type: in vivo, rat; conditions: day 21 post-adjuvant; 10 mg/kg oral from day 10
Method: as §1, §2

[2] = Evaluation of solubility of peptides in water (PBS or physiological saline); type: physicochemical; conditions: solvent PBS or physiological saline
Method: Water solubility was evaluated for peptides in which various kinds of hydrophilic amino acid were substituted for the 4th and 5th amino acids which were verified in (1) to be allowed to be mutated. The peptides listed in Table 2 were synthesized by GL Biochem (Shanghai). Among the peptides listed in Table 2, peptides SP1 to SP7 are peptides in which various kinds of hydrophilic amino acid were substituted for the 4th and 5th amino acids.
In Table 3, the circle symbol is assigned to a peptide which was dissolved in a solvent (PBS or physiological saline) at a concentration of 10 mg/ml or higher, and the cross symbol is assigned to a peptide which was not dissolved at a concentration of 1 mg/ml. […] In the subsequent experiments, the peptides in which the 4th and 5th amino acids were substituted by hydrophilic amino acids were used.

C[C@]12CCC(=O)C=C1CC[C@@H]1[C@@H]2[C@@H](O)C[C@@]2(C)[C@H]1CC[C@]2(O)C(=O)CO [Hydrocortisone]
amount of dye leakage (Evans blue) (Arthus reaction): 5.665±0.674 μg/animal

Cc1oncc1C(=O)Nc1ccc(C(F)(F)F)cc1 [Reflumide]
Percent increase in foot volume relative to pre-adjuvant (left hind-limb) ([1]; Day 0 post-adjuvant): 0.00 ± 0.0%
Percent increase in foot volume relative to pre-adjuvant (right hind-limb) ([1]; Day 0 post-adjuvant): 0.00 ± 0.0%
Redness scores (left hind-limb) ([1]; Day 0 post-adjuvant): 0.0 ± 0.0
Redness scores (right hind-limb) ([1]; Day 0 post-adjuvant): 0.0 ± 0.0
Scores of swelling in knuckle joints (left hind-limb) ([1]; Day 0 post-adjuvant): 0.0 ± 0.0
Scores of swelling in knuckle joints (right hind-limb) ([1]; Day 0 post-adjuvant): 0.0 ± 0.0
Scores of swelling in the instep (left hind-limb) ([1]; Day 0 post-adjuvant): 0.0 ± 0.0
Scores of swelling in the instep (right hind-limb) ([1]; Day 0 post-adjuvant): 0.0 ± 0.0
Total scores (left hind-limb) ([1]; Day 0 post-adjuvant): 0.0 ± 0.0
Total scores (right hind-limb) ([1]; Day 0 post-adjuvant): 0.0 ± 0.0
Percent increase in foot volume relative to pre-adjuvant (left hind-limb) ([1]; Day 3 post-adjuvant): 13.28 ± 0.4%
Percent increase in foot volume relative to pre-adjuvant (right hind-limb) ([1]; Day 3 post-adjuvant): 13.33 ± 0.4%
Redness scores (left hind-limb) ([1]; Day 3 post-adjuvant): 0.0 ± 0.0
Redness scores (right hind-limb) ([1]; Day 3 post-adjuvant): 0.0 ± 0.0
Scores of swelling in knuckle joints (left hind-limb) ([1]; Day 3 post-adjuvant): 0.0 ± 0.0
Scores of swelling in knuckle joints (right hind-limb) ([1]; Day 3 post-adjuvant): 0.0 ± 0.0
Scores of swelling in the instep (left hind-limb) ([1]; Day 3 post-adjuvant): 0.0 ± 0.0
Scores of swelling in the instep (right hind-limb) ([1]; Day 3 post-adjuvant): 0.0 ± 0.0
Total scores (left hind-limb) ([1]; Day 3 post-adjuvant): 0.0 ± 0.0
Total scores (right hind-limb) ([1]; Day 3 post-adjuvant): 0.0 ± 0.0
Percent increase in foot volume relative to pre-adjuvant (left hind-limb) ([1]; Day 7 post-adjuvant): 18.56 ± 3.3%
Percent increase in foot volume relative to pre-adjuvant (right hind-limb) ([1]; Day 7 post-adjuvant): 26.75 ± 1.4%
Redness scores (left hind-limb) ([1]; Day 7 post-adjuvant): 0.4 ± 0.2
Redness scores (right hind-limb) ([1]; Day 7 post-adjuvant): 0.6 ± 0.2
Scores of swelling in knuckle joints (left hind-limb) ([1]; Day 7 post-adjuvant): 0.4 ± 0.2
Scores of swelling in knuckle joints (right hind-limb) ([1]; Day 7 post-adjuvant): 0.2 ± 0.2
Scores of swelling in the instep (left hind-limb) ([1]; Day 7 post-adjuvant): 0.4 ± 0.2
Scores of swelling in the instep (right hind-limb) ([1]; Day 7 post-adjuvant): 1.0 ± 0.0
Total scores (left hind-limb) ([1]; Day 7 post-adjuvant): 1.2 ± 1.6
Total scores (right hind-limb) ([1]; Day 7 post-adjuvant): 1.8 ± 0.5
Percent increase in foot volume relative to pre-adjuvant (left hind-limb) ([1]; Day 10 post-adjuvant): 22.94 ± 3.6%
Percent increase in foot volume relative to pre-adjuvant (right hind-limb) ([1]; Day 10 post-adjuvant): 49.75 ± 15.8%
Redness scores (left hind-limb) ([1]; Day 10 post-adjuvant): 0.8 ± 0.4
Redness scores (right hind-limb) ([1]; Day 10 post-adjuvant): 1.2 ± 0.2
Scores of swelling in knuckle joints (left hind-limb) ([1]; Day 10 post-adjuvant): 1.4 ± 0.4
Scores of swelling in knuckle joints (right hind-limb) ([1]; Day 10 post-adjuvant): 1.6 ± 0.6
Scores of swelling in the instep (left hind-limb) ([1]; Day 10 post-adjuvant): 0.6 ± 0.4
Scores of swelling in the instep (right hind-limb) ([1]; Day 10 post-adjuvant): 1.4 ± 0.4
Total scores (left hind-limb) ([1]; Day 10 post-adjuvant): 2.8 ± 1.4
Total scores (right hind-limb) ([1]; Day 10 post-adjuvant): 4.2 ± 1.5
Percent increase in foot volume relative to day 10 post-adjuvant (left hind-limb) ([1]; Day 14 post-adjuvant): −2.2 ± 1.6%
Percent increase in foot volume relative to day 10 post-adjuvant (right hind-limb) ([1]; Day 14 post-adjuvant): −1.3 ± 2.9^ %
Percent increase in foot volume relative to pre-adjuvant (left hind-limb) ([1]; Day 14 post-adjuvant): 20.13 ± 3.2%
Percent increase in foot volume relative to pre-adjuvant (right hind-limb) ([1]; Day 14 post-adjuvant): 46.22 ± 10.7%
Redness scores (left hind-limb) ([1]; Day 14 post-adjuvant): 0.4 ± 0.2
Redness scores (right hind-limb) ([1]; Day 14 post-adjuvant): 1.2 ± 0.2
Scores of swelling in knuckle joints (left hind-limb) ([1]; Day 14 post-adjuvant): 0.6 ± 0.4
Scores of swelling in knuckle joints (right hind-limb) ([1]; Day 14 post-adjuvant): 1.4 ± 0.4
Scores of swelling in the instep (left hind-limb) ([1]; Day 14 post-adjuvant): 0.2 ± 0.2
Scores of swelling in the instep (right hind-limb) ([1]; Day 14 post-adjuvant): 1.2 ± 0.2
Total scores (left hind-limb) ([1]; Day 14 post-adjuvant): 1.2 ± 1.0
Total scores (right hind-limb) ([1]; Day 14 post-adjuvant): 3.8 ± 1.0
Percent increase in foot volume relative to day 10 post-adjuvant (left hind-limb) ([1]; Day 17 post-adjuvant): 1.2 ± 6.3%
Percent increase in foot volume relative to day 10 post-adjuvant (right hind-limb) ([1]; Day 17 post-adjuvant): −3.4 ± 2.8%
Percent increase in foot volume relative to pre-adjuvant (left hind-limb) ([1]; Day 17 post-adjuvant): 24.18 ± 7.7%
Percent increase in foot volume relative to pre-adjuvant (right hind-limb) ([1]; Day 17 post-adjuvant): 43.17 ± 11.2%
Redness scores (left hind-limb) ([1]; Day 17 post-adjuvant): 0.6 ± 0.6
Redness scores (right hind-limb) ([1]; Day 17 post-adjuvant): 0.8 ± 0.2
Scores of swelling in knuckle joints (left hind-limb) ([1]; Day 17 post-adjuvant): 0.6 ± 0.4
Scores of swelling in knuckle joints (right hind-limb) ([1]; Day 17 post-adjuvant): 0.0 ± 0.0
Scores of swelling in the instep (left hind-limb) ([1]; Day 17 post-adjuvant): 0.2 ± 0.2
Scores of swelling in the instep (right hind-limb) ([1]; Day 17 post-adjuvant): 1.2 ± 0.2
Total scores (left hind-limb) ([1]; Day 17 post-adjuvant): 1.4 ± 1.5
Total scores (right hind-limb) ([1]; Day 17 post-adjuvant): 2.0 ± 0.0
Percent increase in foot volume relative to day 10 post-adjuvant (left hind-limb) ([1]; Day 21 post-adjuvant): −1.4 ± 6.1%
Percent increase in foot volume relative to day 10 post-adjuvant (right hind-limb) ([1]; Day 21 post-adjuvant): −5.9 ± 4.1%
Percent increase in foot volume relative to pre-adjuvant (left hind-limb) ([1]; Day 21 post-adjuvant): 20.93 ± 7.3%
Percent increase in foot volume relative to pre-adjuvant (right hind-limb) ([1]; Day 21 post-adjuvant): 38.93 ± 9.5%
Redness scores (left hind-limb) ([1]; Day 21 post-adjuvant): 0.6 ± 0.6
Redness scores (right hind-limb) ([1]; Day 21 post-adjuvant): 1.4 ± 0.4
Scores of swelling in knuckle joints (left hind-limb) ([1]; Day 21 post-adjuvant): 0.4 ± 0.4
Scores of swelling in knuckle joints (right hind-limb) ([1]; Day 21 post-adjuvant): 0.6 ± 0.6
Scores of swelling in the instep (left hind-limb) ([1]; Day 21 post-adjuvant): 0.4 ± 0.4
Scores of swelling in the instep (right hind-limb) ([1]; Day 21 post-adjuvant): 1.4 ± 0.4
Total scores (left hind-limb) ([1]; Day 21 post-adjuvant): 1.4 ± 1.8
Total scores (right hind-limb) ([1]; Day 21 post-adjuvant): 3.4 ± 1.8
Concentrations of IL-1β in plasma (IL-1β in plasma): 13.0 ± 2.5 pg/mL
Concentrations of TNF-α in plasma (TNF-α in plasma): N.D (N.D.: below detection limit)

PGLDHF [SP3, PGLDHF]
solubility [2]: ≥ 10 mg/mL

PGLDKF [SP1, PGLDKF]
solubility [2]: ≥ 10 mg/mL

PGLDRF [SP2, PGLDRF]
solubility [2]: ≥ 10 mg/mL

PGLEHF [SP6, PGLEHF]
solubility [2]: ≥ 10 mg/mL

PGLEKF [SP4, PGLEKF]
solubility [2]: ≥ 10 mg/mL

PGLERF [SP5, PGLERF]
solubility [2]: ≥ 10 mg/mL

PGLSSF [SP7, PGLSSF]
solubility [2]: ≥ 10 mg/mL

PGLYYF [R1, PGLYYF]
solubility [2]: < 1 mg/mL

Source: patent publication US20130225508A1, “PEPTIDE CAPABLE OF BINDING TO IMMUNOGLOBULIN” (priority 2010, published 2013)
